Assay results taken from US20120101077A1, “AGGLOMERATE FORMULATIONS USEFUL IN DRY POWDER INHALERS” (Schering Corporation, priority 2009, published 2012).
Like-named read-outs stand apart in the source and are kept apart here.

Key:
[1] = cited from earlier work
[2] = Particle size of micronized materials by HELOS laser diffraction; format: physicochemical; settings: jet-milled micronized material
Experimental: Micronization of the drug and lactose were performed in-house using a jet-mill (Micron Master, The Jet Pulverizer Co., Inc, Moorestown, N.J.). […] Particle size measurements of the micronized materials were performed using a HELOS® (Sympatec Inc., Clausthal-Zellerfeld, Germany) laser diffraction system.

[3] = cited from earlier work; remark: listed apart in the source
[4] = Specific surface area of additional functional excipients; format: physicochemical

average particle size (DV50) [2] [μm]	Compound	solubility ([1]; in acetone)	solubility ([1]; in chloroform)	solubility ([1]; in ethanol)	solubility ([1]; in isopropanol)	solubility ([1]; in methanol)	solubility ([1]; in tetrahydrofuran)	solubility ([1]; in water)	partition coefficient between octanol and water [3]	specific surface area [4] [m^2/g]
1.1	C[C@@H]1C[C@H]2[C@@H]3CCC4=CC(=O)C=C[C@]4(C)[C@@]3(Cl)[C@@H](O)C[C@]2(C)[C@@]1(OC(=O)c1ccco1)C(=O)CCl [Mometasone furoate, 9,21-Dichloro-11(beta), 17-dihydroxy-16(alpha)-methylpregna-1,4-diene-3,20-dione 17-(2 furoate)]	soluble	soluble	slightly soluble	slightly soluble	slightly soluble	freely soluble	practically insoluble	greater than 5000	–
2.0	OC[C@H]1O[C@@H](O[C@H]2[C@H](O)[C@@H](O)[C@@H](O)O[C@@H]2CO)[C@H](O)[C@@H](O)[C@H]1O [micronized lactose, lactose anhydrous, NF]	–	–	–	–	–	–	–	–	–
–	magnesium stearate	–	–	–	–	–	–	–	–	8
